In patent US11078170B2 (Assembly Biosciences, Inc., priority 2017, dated 2021):

Each compound was assayed on HBV viral production from HepAD38 cells (assay: Activity of test compounds on viral production from HepAD38 cells (viral load by qPCR of HBV core sequence in supernatant)). Settings: Hepatitis B virus, 120 h, 5 days incubation, HBV DNA in supernatant by qPCR, top concentration 10 μM, read-out: Viral Load EC50 Activity range.
Assay type: cell-based
Outline: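 EC50 and CC50 come from four-parameter fits of supernatant viral load and CellTiter-Glo viability, respectively. Viral load was measured by core-region TaqMan qPCR against HBV DNA standards and compared with DMSO controls. Tet-free HepAD38 cells (50,000/well, 2% FBS) were exposed to compound, highest 10 μM, for 5 days at 37° C.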

SMILES	EC50
CN1[C@@H](C(=O)Nc2ccc(F)c(Cl)c2)C[C@H](c2ncc(-c3cn(C)cn3)s2)NS1(=O)=O [HBV-CSU-276-Trans-ISO-I, (3R,5R)-N-(3-chloro-4-fluorophenyl)-2-methyl-5-(5-(1-methyl-1H-imidazol-4-yl)thiazol-2-yl)-1,2,6-thiadiazinane-3-carboxamide 1,1-dioxide]	< 1000 nM
CN1[C@H](C(=O)Nc2ccc(F)c(Cl)c2)C[C@@H](c2ncc(-c3cn(C)cn3)s2)NS1(=O)=O [HBV-CSU-276-Trans-ISO-II, (3S,5S)-N-(3-chloro-4-fluorophenyl)-2-methyl-5-(5-(1-methyl-1H-imidazol-4-yl)thiazol-2-yl)-1,2,6-thiadiazinane-3-carboxamide 1,1-dioxide]	1000 to 5000 nM
CN1[C@H](C(=O)Nc2ccc(F)c(Cl)c2)C[C@H](c2ncc(-c3cncn3C)s2)NS1(=O)=O [HBV-CSU-277-ISO-I, Cis-N-(3-Chloro-4-fluorophenyl)-2-methyl-5-(5-(1-methyl-1H-imidazol-5-yl)thiazol-2-yl)-1,2,6-thiadiazinane-3-carboxamide 1,1-dioxide]	< 1000 nM
CN1[C@@H](C(=O)Nc2ccc(F)c(Cl)c2)C[C@@H](c2ncc(-c3cncn3C)s2)NS1(=O)=O [HBV-CSU-277-ISO-II, Cis-N-(3-Chloro-4-fluorophenyl)-2-methyl-5-(5-(1-methyl-1H-imidazol-5-yl)thiazol-2-yl)-1,2,6-thiadiazinane-3-carboxamide 1,1-dioxide]	> 5000 nM
CN1[C@@H](C(=O)Nc2ccc(F)c(Cl)c2)C[C@@H](c2ncc(-c3cncs3)s2)NS1(=O)=O [HBV-CSU-278-ISO-II, Cis-5-([5,5′-Bithiazol]-2-yl)-N-(3-chloro-4-fluorophenyl)-2-methyl-1,2,6-thiadiazinane-3-carboxamide 1,1-dioxide]	> 5000 nM
CN1[C@H](C(=O)Nc2ccc(F)c(Cl)c2)C[C@H](c2ncc(-c3ccnn3C)s2)NS1(=O)=O [HBV-CSU-281-ISO-I, Cis-N-(3-Chloro-4-fluorophenyl)-2-methyl-5-(5-(1-methyl-1H-pyrazol-5-yl)thiazol-2-yl)-1,2,6-thiadiazinane-3-carboxamide 1,1-dioxide]	< 1000 nM
CN1[C@@H](C(=O)Nc2ccc(F)c(Cl)c2)C[C@@H](c2ncc(-c3ccnn3C)s2)NS1(=O)=O [HBV-CSU-281-ISO-II, Cis-N-(3-Chloro-4-fluorophenyl)-2-methyl-5-(5-(1-methyl-1H-pyrazol-5-yl)thiazol-2-yl)-1,2,6-thiadiazinane-3-carboxamide 1,1-dioxide]	1000 to 5000 nM
CN1C(C(=O)Nc2ccc(F)c(Cl)c2)CC(c2ccc(Br)c(F)c2)NS1(=O)=O (stereo not drawn) [HBV-CSU-283, Cis-5-(4-Bromo-3-fluorophenyl)-N-(3-chloro-4-fluorophenyl)-2-methyl-1,2,6-thiadiazinane-3-carboxamide 1,1-dioxide]	< 1000 nM
CN1[C@H](C(=O)Nc2ccc(F)c(Cl)c2)C[C@H](c2cc(-c3cncn3C)cs2)NS1(=O)=O [HBV-CSU-285-ISO-I, Cis-N-(3-Chloro-4-fluorophenyl)-2-methyl-5-(4-(1-methyl-1H-imidazol-5-yl)thiophen-2-yl)-1,2,6-thiadiazinane-3-carboxamide 1,1-dioxide]	< 1000 nM
CN1[C@H](C(=O)Nc2ccc(F)c(Cl)c2)C[C@H](c2cc(-c3cncs3)cs2)NS1(=O)=O [HBV-CSU-286-ISO-I, Cis-N-(3-Chloro-4-fluorophenyl)-2-methyl-5-(4-(thiazol-5-yl)thiophen-2-yl)-1,2,6-thiadiazinane-3-carboxamide 1,1-dioxide]	< 1000 nM
CN1[C@@H](C(=O)Nc2ccc(F)c(Cl)c2)C[C@@H](c2cc(-c3cncs3)cs2)NS1(=O)=O [HBV-CSU-286-ISO-II, Cis-N-(3-Chloro-4-fluorophenyl)-2-methyl-5-(4-(thiazol-5-yl)thiophen-2-yl)-1,2,6-thiadiazinane-3-carboxamide 1,1-dioxide]	1000 to 5000 nM
CN1[C@H](C(=O)Nc2ccc(F)c(Cl)c2)C[C@H](c2cc(-c3ccn(C)n3)cs2)NS1(=O)=O [HBV-CSU-288-ISO-I, Cis-N-(3-Chloro-4-fluorophenyl)-2-methyl-5-(4-(1-methyl-1H-pyrazol-3-yl)thiophen-2-yl)-1,2,6-thiadiazinane-3-carboxamide 1,1-dioxide]	< 1000 nM
CN1[C@@H](C(=O)Nc2ccc(F)c(Cl)c2)C[C@@H](c2cc(-c3ccn(C)n3)cs2)NS1(=O)=O [HBV-CSU-288-ISO-II, Cis-N-(3-Chloro-4-fluorophenyl)-2-methyl-5-(4-(1-methyl-1H-pyrazol-3-yl)thiophen-2-yl)-1,2,6-thiadiazinane-3-carboxamide 1,1-dioxide]	1000 to 5000 nM
CN1[C@@H](C(=O)Nc2ccc(F)c(Cl)c2)C[C@@H](c2cc(-c3ccnn3C)cs2)NS1(=O)=O [HBV-CSU-289-ISO-II, Cis-N-(3-chloro-4-fluorophenyl)-2-methyl-5-(4-(1-methyl-1H-pyrazol-5-yl)thiophen-2-yl)-1,2,6-thiadiazinane-3-carboxamide 1,1-dioxide]	1000 to 5000 nM
CN1[C@H](C(=O)Nc2ccc(F)c(Cl)c2)C[C@H](c2cc(-c3cncnc3)cs2)NS1(=O)=O [HBV-CSU-290-ISO-I, Cis-N-(3-chloro-4-fluorophenyl)-2-methyl-5-(4-(pyrimidin-5-yl)thiophen-2-yl)-1,2,6-thiadiazinane-3-carboxamide 1,1-dioxide]	< 1000 nM
CN1[C@@H](C(=O)Nc2ccc(F)c(Cl)c2)C[C@@H](c2cc(-c3cncnc3)cs2)NS1(=O)=O [HBV-CSU-290-ISO-II, Cis-N-(3-chloro-4-fluorophenyl)-2-methyl-5-(4-(pyrimidin-5-yl)thiophen-2-yl)-1,2,6-thiadiazinane-3-carboxamide 1,1-dioxide]	1000 to 5000 nM
CCn1cc(-c2ccc([C@H]3C[C@@H](C(=O)Nc4ccc(F)c(Cl)c4)N(C)S(=O)(=O)N3)s2)cn1 [HBV-CSU-291-ISO-I, Cis-N-(3-chloro-4-fluorophenyl)-5-(5-(1-ethyl-1H-pyrazol-4-yl)thiophen-2-yl)-2-methyl-1,2,6-thiadiazinane-3-carboxamide 1,1-dioxide]	< 1000 nM
CCn1cc(-c2ccc([C@@H]3C[C@H](C(=O)Nc4ccc(F)c(Cl)c4)N(C)S(=O)(=O)N3)s2)cn1 [HBV-CSU-291-ISO-II, Cis-N-(3-chloro-4-fluorophenyl)-5-(5-(1-ethyl-1H-pyrazol-4-yl)thiophen-2-yl)-2-methyl-1,2,6-thiadiazinane-3-carboxamide 1,1-dioxide]	> 5000 nM
CC(C)n1cc(-c2ccc([C@H]3C[C@@H](C(=O)Nc4ccc(F)c(Cl)c4)N(C)S(=O)(=O)N3)s2)cn1 [HBV-CSU-292-ISO-I, Cis-N-(3-chloro-4-fluorophenyl)-5-(5-(1-isopropyl-1H-pyrazol-4-yl)thiophen-2-yl)-2-methyl-1,2,6-thiadiazinane-3-carboxamide 1,1-dioxide]	< 1000 nM
CC(C)n1cc(-c2ccc([C@@H]3C[C@H](C(=O)Nc4ccc(F)c(Cl)c4)N(C)S(=O)(=O)N3)s2)cn1 [HBV-CSU-292-ISO-II, Cis-N-(3-chloro-4-fluorophenyl)-5-(5-(1-isopropyl-1H-pyrazol-4-yl)thiophen-2-yl)-2-methyl-1,2,6-thiadiazinane-3-carboxamide 1,1-dioxide]	1000 to 5000 nM
CN1[C@H](C(=O)Nc2ccc(F)c(Cl)c2)C[C@H](c2ccc(-c3cnn(CCO)c3)s2)NS1(=O)=O [HBV-CSU-293-ISO-I, Cis-N-(3-chloro-4-fluorophenyl)-5-(5-(1-(2-hydroxyethyl)-1H-pyrazol-4-yl)thiophen-2-yl)-2-methyl-1,2,6-thiadiazinane-3-carboxamide 1,1-dioxide]	< 1000 nM
CN1[C@@H](C(=O)Nc2ccc(F)c(Cl)c2)C[C@@H](c2ccc(-c3cnn(CCO)c3)s2)NS1(=O)=O [HBV-CSU-293-ISO-II, Cis-N-(3-chloro-4-fluorophenyl)-5-(5-(1-(2-hydroxyethyl)-1H-pyrazol-4-yl)thiophen-2-yl)-2-methyl-1,2,6-thiadiazinane-3-carboxamide 1,1-dioxide]	> 5000 nM
CCn1cc(-c2csc([C@H]3C[C@@H](C(=O)Nc4ccc(F)c(Cl)c4)N(C)S(=O)(=O)N3)c2)cn1 [HBV-CSU-294-ISO-I, Cis-N-(3-chloro-4-fluorophenyl)-5-(4-(1-ethyl-1H-pyrazol-4-yl)thiophen-2-yl)-2-methyl-1,2,6-thiadiazinane-3-carboxamide 1,1-dioxide]	< 1000 nM
CCn1cc(-c2csc([C@@H]3C[C@H](C(=O)Nc4ccc(F)c(Cl)c4)N(C)S(=O)(=O)N3)c2)cn1 [HBV-CSU-294-ISO-II, Cis-N-(3-chloro-4-fluorophenyl)-5-(4-(1-ethyl-1H-pyrazol-4-yl)thiophen-2-yl)-2-methyl-1,2,6-thiadiazinane-3-carboxamide 1,1-dioxide]	1000 to 5000 nM
CC(C)n1cc(-c2csc([C@H]3C[C@@H](C(=O)Nc4ccc(F)c(Cl)c4)N(C)S(=O)(=O)N3)c2)cn1 [HBV-CSU-295-ISO-I, Cis-N-(3-chloro-4-fluorophenyl)-5-(4-(1-isopropyl-1H-pyrazol-4-yl)thiophen-2-yl)-2-methyl-1,2,6-thiadiazinane-3-carboxamide 1,1-dioxide]	< 1000 nM
CC(C)n1cc(-c2csc([C@@H]3C[C@H](C(=O)Nc4ccc(F)c(Cl)c4)N(C)S(=O)(=O)N3)c2)cn1 [HBV-CSU-295-ISO-II, Cis-N-(3-chloro-4-fluorophenyl)-5-(4-(1-isopropyl-1H-pyrazol-4-yl)thiophen-2-yl)-2-methyl-1,2,6-thiadiazinane-3-carboxamide 1,1-dioxide]	1000 to 5000 nM
CN1[C@H](C(=O)Nc2ccc(F)c(Cl)c2)C[C@H](c2cc(-c3cnn(CCO)c3)cs2)NS1(=O)=O [HBV-CSU-296-ISO-I, Cis-N-(3-chloro-4-fluorophenyl)-5-(4-(1-(2-hydroxyethyl)-1H-pyrazol-4-yl)thiophen-2-yl)-2-methyl-1,2,6-thiadiazinane-3-carboxamide 1,1-dioxide]	< 1000 nM
